# In PubChem BioAssay AID1918999 (Molecular Pharmacology Branch, DTP, NCI, 2023):
# Tested on: 556581-035-R-J1-PDC complex spheroid growth
# Test: Anticancer human tumor 556581-035-R-J1-PDC patient-derived ovarian carcinoma cell line growth inhibition [AhR]
# Details: for IC50: curve of first compound; for viability, T/C: stronger effect = lower value
# Procedure, shortened: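 Agents were dosed in half-log steps down from roughly clinical Cmax, or from 10 microM where Cmax was unknown, alone and with AhR antagonists. Read-out: percent test/control growth of tumor spheroids containing HUVEC and MSC stromal cells.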
# [1] = second compound 0.1 µM, first compound 0.0316 µM
# [2] = second compound 0.1 µM, first compound 0.1 µM
# [3] = second compound 0.1 µM, first compound 0.316 µM
# [4] = second compound 0.1 µM, first compound 1 µM
# [5] = second compound 0.1 µM, first compound 3.16 µM
# [6] = second compound 0.1 µM, first compound 10 µM
# [7] = second compound 0.316 µM, first compound 0.0316 µM
# [8] = second compound 0.316 µM, first compound 0.1 µM
# [9] = second compound 0.316 µM, first compound 0.316 µM
# [10] = second compound 0.316 µM, first compound 1 µM
# [11] = second compound 0.316 µM, first compound 3.16 µM
# [12] = second compound 0.316 µM, first compound 10 µM
# [13] = second compound 1 µM, first compound 0.0316 µM
# [14] = second compound 1 µM, first compound 0.1 µM
# [15] = second compound 1 µM, first compound 0.316 µM
# [16] = second compound 1 µM, first compound 1 µM
# [17] = second compound 1 µM, first compound 3.16 µM
# [18] = second compound 1 µM, first compound 10 µM
# [19] = second compound 3.16 µM, first compound 0.0316 µM
# [20] = second compound 3.16 µM, first compound 0.1 µM
# [21] = second compound 3.16 µM, first compound 0.316 µM
# [22] = second compound 3.16 µM, first compound 1 µM
# [23] = second compound 3.16 µM, first compound 3.16 µM
# [24] = second compound 3.16 µM, first compound 10 µM
# [25] = second compound 10 µM, first compound 0.0316 µM
# [26] = second compound 10 µM, first compound 0.1 µM
# [27] = second compound 10 µM, first compound 0.316 µM
# [28] = second compound 10 µM, first compound 1 µM
# [29] = second compound 10 µM, first compound 3.16 µM
# [30] = second compound 10 µM, first compound 10 µM
# 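Wherever viability, T/C is given: compound exposure lasted 7 days; 100% = DMSO vehicle control growth.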
smiles,measurement,setting,value
COc1cc(Nc2ncc3c(n2)-c2ccc(Cl)cc2C(c2c(F)cccc2OC)=NC3)ccc1C(=O)O + Cc1ccccc1N=Nc1ccc(NC(=O)c2ccnn2C)c(C)c1,IC50,second compound 0.1 µM,> 10 µM
same,IC50,second compound 0.316 µM,> 10 µM
same,IC50,second compound 1 µM,> 10 µM
same,IC50,second compound 3.16 µM,> 10 µM
same,IC50,second compound 10 µM,> 10 µM
same,"viability, T/C",[1],83.8%
same,"viability, T/C",[2],72.4%
same,"viability, T/C",[3],69.2%
same,"viability, T/C",[4],61.4%
same,"viability, T/C",[5],60.4%
same,"viability, T/C",[6],59.4%
same,"viability, T/C",[7],78%
same,"viability, T/C",[8],73.5%
same,"viability, T/C",[9],68.5%
same,"viability, T/C",[10],56.6%
same,"viability, T/C",[11],61.1%
same,"viability, T/C",[12],48.7%
same,"viability, T/C",[13],80.5%
same,"viability, T/C",[14],73.2%
same,"viability, T/C",[15],69%
same,"viability, T/C",[16],62.8%
same,"viability, T/C",[17],64.7%
same,"viability, T/C",[18],54.9%
same,"viability, T/C",[19],67.2%
same,"viability, T/C",[20],66.2%
same,"viability, T/C",[21],57.6%
same,"viability, T/C",[22],58.1%
same,"viability, T/C",[23],58.6%
same,"viability, T/C",[24],49.2%
same,"viability, T/C",[25],70.2%
same,"viability, T/C",[26],61.9%
same,"viability, T/C",[27],62.1%
same,"viability, T/C",[28],66%
same,"viability, T/C",[29],57.6%
same,"viability, T/C",[30],56.8%
O=C(c1cc(Cc2n[nH]c(=O)c3ccccc23)ccc1F)N1CCN(C(=O)C2CC2)CC1 + Cc1cncc(-c2nc(NCCc3c[nH]c4ccccc34)c3ncn(C(C)C)c3n2)c1,IC50,second compound 0.1 µM,> 10 µM
same,IC50,second compound 0.316 µM,> 10 µM
same,IC50,second compound 1 µM,> 10 µM
same,IC50,second compound 3.16 µM,> 10 µM
same,IC50,second compound 10 µM,> 10 µM
same,"viability, T/C",[1],98.4%
same,"viability, T/C",[2],107%
same,"viability, T/C",[3],101%
same,"viability, T/C",[4],89.6%
same,"viability, T/C",[5],94.6%
same,"viability, T/C",[6],82%
same,"viability, T/C",[7],112%
same,"viability, T/C",[8],105%
same,"viability, T/C",[9],104%
same,"viability, T/C",[10],91.2%
same,"viability, T/C",[11],91.9%
same,"viability, T/C",[12],78.9%
same,"viability, T/C",[13],108%
same,"viability, T/C",[14],102%
same,"viability, T/C",[15],99.3%
same,"viability, T/C",[16],95.9%
same,"viability, T/C",[17],98.8%
same,"viability, T/C",[18],90.2%
same,"viability, T/C",[19],104%
same,"viability, T/C",[20],108%
same,"viability, T/C",[21],95.3%
same,"viability, T/C",[22],89.2%
same,"viability, T/C",[23],94.3%
same,"viability, T/C",[24],81.3%
same,"viability, T/C",[25],90%
same,"viability, T/C",[26],95.4%
same,"viability, T/C",[27],95.2%
same,"viability, T/C",[28],86.2%
same,"viability, T/C",[29],92.7%
same,"viability, T/C",[30],83.2%
CCc1c2c(nc3ccc(O)cc13)-c1cc3c(c(=O)n1C2)COC(=O)[C@]3(O)CC + Cc1cncc(-c2nc(NCCc3c[nH]c4ccccc34)c3ncn(C(C)C)c3n2)c1,IC50,second compound 0.1 µM,0.0148 µM
same,IC50,second compound 0.316 µM,0.0154 µM
same,IC50,second compound 1 µM,0.0137 µM
same,IC50,second compound 3.16 µM,0.0185 µM
same,IC50,second compound 10 µM,0.0168 µM
same,"viability, T/C","second compound 0.1 µM, first compound 0.000949 µM",91.8%
same,"viability, T/C","second compound 0.1 µM, first compound 0.003 µM",86.4%
same,"viability, T/C","second compound 0.1 µM, first compound 0.00949 µM",56.4%
same,"viability, T/C","second compound 0.1 µM, first compound 0.03 µM",36%
same,"viability, T/C","second compound 0.1 µM, first compound 0.0949 µM",17.5%
same,"viability, T/C","second compound 0.1 µM, first compound 0.3 µM",10.5%
same,"viability, T/C","second compound 0.316 µM, first compound 0.000949 µM",97.3%
same,"viability, T/C","second compound 0.316 µM, first compound 0.003 µM",89.2%
same,"viability, T/C","second compound 0.316 µM, first compound 0.00949 µM",55.7%
same,"viability, T/C","second compound 0.316 µM, first compound 0.03 µM",40%
same,"viability, T/C","second compound 0.316 µM, first compound 0.0949 µM",14.4%
same,"viability, T/C","second compound 0.316 µM, first compound 0.3 µM",10.8%
same,"viability, T/C","second compound 1 µM, first compound 0.000949 µM",101%
same,"viability, T/C","second compound 1 µM, first compound 0.003 µM",90.2%
same,"viability, T/C","second compound 1 µM, first compound 0.00949 µM",60.6%
same,"viability, T/C","second compound 1 µM, first compound 0.03 µM",27.1%
same,"viability, T/C","second compound 1 µM, first compound 0.0949 µM",16.2%
same,"viability, T/C","second compound 1 µM, first compound 0.3 µM",9.89%
same,"viability, T/C","second compound 3.16 µM, first compound 0.000949 µM",84.2%
same,"viability, T/C","second compound 3.16 µM, first compound 0.003 µM",90.8%
same,"viability, T/C","second compound 3.16 µM, first compound 0.00949 µM",65.4%
same,"viability, T/C","second compound 3.16 µM, first compound 0.03 µM",38.8%
same,"viability, T/C","second compound 3.16 µM, first compound 0.0949 µM",14.6%
same,"viability, T/C","second compound 3.16 µM, first compound 0.3 µM",13.8%
same,"viability, T/C","second compound 10 µM, first compound 0.000949 µM",81.5%
same,"viability, T/C","second compound 10 µM, first compound 0.003 µM",73.8%
same,"viability, T/C","second compound 10 µM, first compound 0.00949 µM",63%
same,"viability, T/C","second compound 10 µM, first compound 0.03 µM",37.7%
same,"viability, T/C","second compound 10 µM, first compound 0.0949 µM",17.2%
same,"viability, T/C","second compound 10 µM, first compound 0.3 µM",9.08%
